Source: patent US8658637B2, “Glucocorticoid mimetics, methods of making them, pharmaceutical compositions and uses thereof” (Boehringer Ingelheim International GmbH, priority 2006, dated 2014)

Tested on: IL-6 production in human foreskin fibroblast cells
Assay: Inhibition of IL-6 Production in Fibroblasts (Cell Assay for Transrepression)
Assay type: cell-based
Conditions: IL-1 stimulated human foreskin fibroblasts; for EC50: read-out: agonistic activity (EC50) by inhibiting IL-6 production in Fibroblasts; for Emax: read-out: efficacy by inhibiting IL-6 production in Fibroblasts
Method: 2. Inhibition of IL-6 Production in Fibroblasts (Cell Assay for Transrepression)
Human foreskin fibroblast cells produce IL-6 in response to stimulation by proinflammatory cytokine IL-1.
Human foreskin fibroblast cells (ATCC Cat. No. CRL-2429) are plated on 96 well plates at 5,000 cells per well the day before use, in Iscove's Modified Dulbecco's Media (GibcoBRL Life Technologies Cat. No. 12440-053) supplemented with 10% charcoal filtered FBS (Clonetech Cat. No. SH30068) and Gentamycin (GibcoBRL Life Technologies Cat. No. 15710-064). On the next day, media in the wells is replaced with fresh media. Cells are treated with IL-1 (rhIL-1α, R&D Systems Cat. No. 200-LA) to a final concentration of 1 ng/mL, and with test compounds to final concentrations of 10^−5 M to 10^−8 M, in a total volume of 200 μL per well. Samples are done in duplicates. […] Positive control wells receive IL-1 only and represent maximum (or 100%) amount of IL-6 production. Plates are incubated at 37° C. overnight (15 to 18 hours), and supernatants are harvested at the end of incubation. IL-6 levels in the supernatants are determined by the ELISA kits for IL-6 (MedSystems Diagnostics GmbH, Vienna, Austria, Cat. No. BMS213TEN) according to manufacture's instructions. The extent of inhibition of IL-6 by test compounds is expressed in percentage relative to positive controls. IC50 values of test compounds are derived by non-linear curve fitting.

Row | Compound | EC50 [µM] | Emax [%]
1 | C=CCn1cc(C(O)(c2ccc3c(cnn3-c3ccc(F)cc3)c2)C(F)(F)F)c2ccc(Br)cc21 (stereo not drawn) [1-(1-Allyl-6-bromo-1H-indol-3-yl)-2,2,2-trifluoro-1-[1-(4-fluorophenyl)-1H-indazol-5-yl]ethanol] | ≤ 1 | > 50
2 | C=CCCn1cc(C(O)(c2ccc3c(cnn3-c3ccc(F)cc3)c2)C(F)(F)F)c2ccccc21 (stereo not drawn) [1-(1-But-3-enyl-1H-indol-3-yl)-2,2,2-trifluoro-1-[1-(4-fluorophenyl)-1H-indazol-5-yl]ethanol] | ≤ 1 | > 50
3 | N#Cc1nn(CC(O)CO)cc1C(O)(c1ccc2c(cnn2-c2ccc(F)cc2)c1)C(F)(F)F (stereo not drawn) [1-(2,3-Dihydroxypropyl)-4-{2,2,2-trifluoro-1-[1-(4-fluorophenyl)-1H-indazol-5-yl]-1-hydroxyethyl}-1H-pyrazole-3-carbonitrile] | ≤ 1 | > 50
4 | CCOC(=O)c1cc(C(O)(c2ccc3c(cnn3-c3ccc(F)cc3)c2)C(F)(F)F)cn1CC(O)CO (stereo not drawn) [1-(2,3-Dihydroxypropyl)-4-{2,2,2-trifluoro-1-[1-(4-fluorophenyl)-1H-indazol-5-yl]-1-hydroxyethyl}-1H-pyrrole-2-carboxylic acid ethyl ester] | ≤ 1 | > 50
5 | C=CCCn1cc(C(O)(c2ccc3c(cnn3-c3ccc(F)cc3)c2)C(F)(F)F)c2ccc(Br)cc21 (stereo not drawn) [1-(6-Bromo-1-but-3-enyl-1H-indol-3-yl)-2,2,2-trifluoro-1-[1-(4-fluorophenyl)-1H-indazol-5-yl]ethanol] | ≤ 1 | > 50
6 | OC(c1ccc2c(cnn2-c2ccc(F)cc2)c1)(c1c[nH]c2c(Cl)nccc12)C(F)(F)F (stereo not drawn) [1-(7-Chloro-1H-pyrrolo[2,3-c]pyridin-3-yl)-2,2,2-trifluoro-1-[1-(4-fluorophenyl)-1H-indazol-5-yl]ethanol] | ≤ 1 | > 50
7 | C=CCn1cc(C(O)(c2ccc3c(cnn3-c3ccc(F)cc3)c2)C(F)(F)F)c(C#N)n1 (stereo not drawn) [1-Allyl-4-{2,2,2-trifluoro-1-[1-(4-fluorophenyl)-1H-indazol-5-yl]-1-hydroxyethyl}-1H-pyrazole-3-carbonitrile] | ≤ 1 | > 50
8 | C=CCn1cc(C(O)(c2ccc3c(cnn3-c3ccc(F)cc3)c2)C(F)(F)F)cc1C(=O)OCC (stereo not drawn) [1-Allyl-4-{2,2,2-trifluoro-1-[1-(4-fluorophenyl)-1H-indazol-5-yl]-1-hydroxyethyl}-1H-pyrrole-2-carboxylic acid ethyl ester] | ≤ 1 | > 50
9 | C=CCn1cc(C(O)(c2ccc3c(cnn3-c3ccc(F)cc3)c2)C(F)(F)F)c2ccn(C)c(=O)c21 (stereo not drawn) [1-Allyl-6-methyl-3-{2,2,2-trifluoro-1-[1-(4-fluorophenyl)-1H-indazol-5-yl]-1-hydroxyethyl}-1,6-dihydropyrrolo[2,3-c]pyridin-7-one] | ≤ 1 | > 50
10 | CC1(C)OCC(Cn2cc(C(O)(c3ccn4c(-c5ccc(F)cc5)ncc4c3)C(F)(F)F)c3ccccc32)O1 (stereo not drawn) [1-[1-(2,2-Dimethyl-1,3-dioxolan-4-ylmethyl)-1H-indol-3-yl]-2,2,2-trifluoro-1-[3-(4-fluorophenyl)imidazo[1,5-a]pyridin-7-yl]ethanol] | ≤ 1 | > 50
11 | OCCn1cc(C(O)(c2ccc3c(cnn3-c3ccc(F)cc3)c2)C(F)(F)F)c2ncnc(Cl)c21 (stereo not drawn) [1-[4-Chloro-5-(2-hydroxyethyl)-5H-pyrrolo[3,2-d]pyrimidin-7-yl]-2,2,2-trifluoro-1-[1-(4-fluorophenyl)-1H-indazol-5-yl]ethanol] | ≤ 1 | > 50
12 | Cn1cc(C(O)(c2ccc3c(cnn3-c3cccnc3)c2)C(F)(F)F)c2ccccc21 (stereo not drawn) [2,2,2-Trifluoro-1-(1-methyl-1H-indol-3-yl)-1-(1-pyridin-3-yl-1H-indazol-5-yl)ethanol] | ≤ 1 | > 50
13 | Cn1cc(C(O)(c2ccc3c(cnn3-c3ccsc3)c2)C(F)(F)F)c2ccccc21 (stereo not drawn) [2,2,2-Trifluoro-1-(1-methyl-1H-indol-3-yl)-1-(1-thiophen-3-yl-1H-indazol-5-yl)ethanol] | ≤ 1 | > 50
14 | Cn1cc(-n2ncc3cc(C(O)(c4cn(C)c5ccccc45)C(F)(F)F)ccc32)cn1 (stereo not drawn) [2,2,2-Trifluoro-1-(1-methyl-1H-indol-3-yl)-1-[1-(1-methyl-1H-pyrazol-4-yl)-1H-indazol-5-yl]ethanol] | ≤ 1 | > 50
15 | Cn1cc(C(O)(c2ccc3c(c2)nnn3-c2ccc(F)cc2)C(F)(F)F)c2ccccc21 (stereo not drawn) [2,2,2-Trifluoro-1-[1-(4-fluorophenyl)-1H-benzotriazol-5-yl]-1-(1-methyl-1H-indol-3-yl)ethanol] | ≤ 1 | > 50
16 | OC(c1ccc2c(cnn2-c2ccc(F)cc2)c1)(c1c[nH]c2ncccc12)C(F)(F)F (stereo not drawn) [2,2,2-Trifluoro-1-[1-(4-fluorophenyl)-1H-indazol-5-yl]-1-(1H-pyrrolo[2,3-b]pyridin-3-yl)ethanol] | ≤ 1 | > 50
17 | COc1nccc2c(C(O)(c3ccc4c(cnn4-c4ccc(F)cc4)c3)C(F)(F)F)c[nH]c12 (stereo not drawn) [2,2,2-Trifluoro-1-[1-(4-fluorophenyl)-1H-indazol-5-yl]-1-(7-methoxy-1H-pyrrolo[2,3-c]pyridin-3-yl)ethanol] | ≤ 1 | > 50
18 | [O-][n+]1cccc2c(C(O)(c3ccc4c(cnn4-c4ccc(F)cc4)c3)C(F)(F)F)c[nH]c21 (stereo not drawn) [2,2,2-Trifluoro-1-[1-(4-fluorophenyl)-1H-indazol-5-yl]-1-(7-oxy-1H-pyrrolo[2,3-b]pyridin-3-yl)ethanol] | ≤ 1 | > 50
19 | OC(c1ccc2c(cnn2-c2ccc(F)cc2)c1)(c1cn(CCN2CCOCC2)c2ccccc12)C(F)(F)F (stereo not drawn) [2,2,2-Trifluoro-1-[1-(4-fluorophenyl)-1H-indazol-5-yl]-1-[1-(2-morpholin-4-ylethyl)-1H-indol-3-yl]ethanol] | ≤ 1 | > 50
20 | OC(c1ccc2c(cnn2-c2ccc(F)cc2)c1)(c1cn(CC2CCCO2)c2ccccc12)C(F)(F)F (stereo not drawn) [2,2,2-Trifluoro-1-[1-(4-fluorophenyl)-1H-indazol-5-yl]-1-[1-(tetrahydro-furan-2-ylmethyl)-1H-indol-3-yl]ethanol] | ≤ 1 | > 50
21 | Cn1cc(C(O)(c2ccc3c(cnn3-c3ccc(F)nc3)c2)C(F)(F)F)c2ccccc21 (stereo not drawn) [2,2,2-Trifluoro-1-[1-(6-fluoropyridin-3-yl)-1H-indazol-5-yl]-1-(1-methyl-1H-indol-3-yl)ethanol] | ≤ 1 | > 50
22 | Cn1cc(C(O)(c2ccn3c(-c4ccc(F)cc4)ncc3c2)C(F)(F)F)c2ccccc21 (stereo not drawn) [2,2,2-Trifluoro-1-[3-(4-fluorophenyl)imidazo[1,5-a]pyridin-7-yl]-1-(1-methyl-1H-indol-3-yl)ethanol] | ≤ 1 | > 50
23 | NC(=O)Cn1cc(C(O)(c2ccc3c(cnn3-c3ccc(F)cc3)c2)C(F)(F)F)c2cccnc21 (stereo not drawn) [2-(3-{2,2,2-Trifluoro-1-[1-(4-fluorophenyl)-1H-indazol-5-yl]-1-hydroxyethyl}pyrrolo[2,3-b]pyridin-1-yl)acetamide] | ≤ 1 | > 50
24 | CNC(=O)Cn1cc(C(O)(c2ccc3c(cnn3-c3ccc(F)cc3)c2)C(F)(F)F)c2ccc(Br)cc21 (stereo not drawn) [2-(6-Bromo-3-{2,2,2-trifluoro-1-[1-(4-fluorophenyl)-1H-indazol-5-yl]-1-hydroxyethyl}indol-1-yl)-N-methylacetamide] | ≤ 1 | > 50
